Consider 15 compounds from PubChem BioAssay (NCI).

SMILES strings stand for the structures.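 Exposure lasted 48 hours, with cells grown in 96-well plates and compounds tested at five concentrations. GI50 marks 50% less growth. TGI denotes the concentration required for complete inhibition of growth.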

Test systems include COLO 205 colon; K-562 leukemia; HCC-2998 colon; OVCAR-8 ovarian; IGROV1 ovarian; SK-MEL-5 melanoma; RXF 393 renal; SF-539 CNS; HT29 colon; MDA-MB-435.
What all share (test): NCI tumour cell line growth inhibition, 48 h

Regarding `Nc1nc2c(nnn2C2C=C(CO)C(O)C2O)c(=O)[nH]1` (stereo unspecified), the TGI in the assay on COLO 205 colon, in the assay with K-562 leukemia, with HCC-2998 colon, with OVCAR-8 ovarian, in the assay on IGROV1 ovarian and in the assay on SK-MEL-5 melanoma was greater than 100 µM throughout. Moreover, the TGI in the assay with RXF 393 renal, in the assay on SF-539 CNS and in the assay on HT29 colon was greater than 100 µM throughout.
`c1ccc(C2SCc3nc4ccccc4n32)cc1` (stereo unspecified): the TGI was greater than 100 µM in the assay on COLO 205 colon; greater than 100 µM in the assay on K-562 leukemia; greater than 100 µM in the assay on HCC-2998 colon; greater than 100 µM with OVCAR-8 ovarian; greater than 100 µM with IGROV1 ovarian; 56.4 µM in the assay with SK-MEL-5 melanoma. For the same compound, the TGI with RXF 393 renal, in the assay with SF-539 CNS and in the assay on HT29 colon was greater than 100 µM each time.
For the compound `O=C(O)Cn1cnc2c(=O)[nH]c(Nc3ccccc3)nc21`, the TGI in the assay with COLO 205 colon, in the assay with HCC-2998 colon, in the assay with MDA-MB-435, with OVCAR-8 ovarian, with IGROV1 ovarian and in the assay with SK-MEL-5 melanoma was greater than 100 µM in each case. Further, the TGI with SF-539 CNS and with HT29 colon was greater than 100 µM throughout.
`CN(C)CCNC(=O)c1cccc2c(NC(CCCN=C(N)N)C(=O)O)c3ccccc3nc12` (stereo unspecified): the TGI with COLO 205 colon is greater than 100 µM; in the assay on K-562 leukemia, greater than 100 µM; with MDA-MB-435, 41.6 µM; in the assay with OVCAR-8 ovarian, 30.5 µM; with IGROV1 ovarian, 64.7 µM; in the assay on SK-MEL-5 melanoma, greater than 100 µM. The compound further gave a TGI with HT29 colon of 14.1 µM.
Take `CCN1CC2(CO)CCC(OC)C34C5CC6C(OC)CC(O)(C5C6OC)C(O)(C(OC)C23)C14` (stereo unspecified): the TGI in the assay on COLO 205 colon was greater than 375 µM; in the assay on K-562 leukemia, greater than 375 µM; with HCC-2998 colon it was greater than 375 µM; in the assay with OVCAR-8 ovarian, greater than 375 µM; with IGROV1 ovarian, greater than 375 µM; in the assay with SK-MEL-5 melanoma it was greater than 211 µM. Moreover, the TGI in the assay with RXF 393 renal, in the assay with SF-539 CNS and in the assay on HT29 colon was greater than 375 µM in each case.
For `Cc1ccnc2[nH]c(-c3ccc(Cl)cc3)cc(=O)c12`, the TGI is greater than 21.9 µM in the assay on COLO 205 colon; 60 µM in the assay on K-562 leukemia; greater than 100 µM with HCC-2998 colon; greater than 100 µM in the assay with OVCAR-8 ovarian; greater than 100 µM in the assay on IGROV1 ovarian; greater than 100 µM with SK-MEL-5 melanoma. In addition, the TGI in the assay on RXF 393 renal, in the assay with SF-539 CNS and in the assay on HT29 colon was greater than 100 µM throughout.
With `C#CCN(Cc1ccc2nc(-c3ccccc3)c(Cl)nc2c1)c1ccc(Cl)c(Cl)c1`, the TGI with COLO 205 colon is greater than 100 µM; in the assay with K-562 leukemia, greater than 100 µM; with HCC-2998 colon, 96.8 µM; with OVCAR-8 ovarian, greater than 100 µM; in the assay on IGROV1 ovarian, greater than 100 µM; with SK-MEL-5 melanoma it was greater than 100 µM. Further, the TGI in the assay with SF-539 CNS and in the assay with HT29 colon was greater than 100 µM in each case.
As for `Cc1ccc(C2=C(c3ccccc3)C(O)(c3ccccc3)C(c3ccccc3)=C2c2ccc(C)cc2)cc1`, the TGI in the assay with K-562 leukemia, in the assay on HCC-2998 colon, in the assay on OVCAR-8 ovarian, in the assay on IGROV1 ovarian, with SK-MEL-5 melanoma and in the assay with RXF 393 renal was greater than 100 µM throughout. In addition, the TGI in the assay on SF-539 CNS and in the assay on HT29 colon was greater than 100 µM in each case.
With `OC[C@H](O)[C@@H](OCc1ccccc1)[C@H](NCc1ccccc1)c1cccs1`, the TGI in the assay on COLO 205 colon, in the assay with K-562 leukemia, in the assay with MDA-MB-435, with OVCAR-8 ovarian, in the assay on IGROV1 ovarian and in the assay with SK-MEL-5 melanoma was greater than 100 µM throughout. For the same compound, the TGI in the assay with SF-539 CNS and in the assay with HT29 colon was greater than 100 µM in each case.
Turning to `CCCN1CCN(c2ccc3nc(-c4ccc5nc(-c6ccc(OCC)cc6)[nH]c5c4)[nH]c3c2)CC1`, in the assay with K-562 leukemia, the GI50 is 418 nM and the TGI came out at 1.82 µM. Also, in the assay on SK-MEL-5 melanoma, the GI50 is 1040 nM and the TGI amounted to 2.24 µM.
On to `Cc1nc2cc3[nH]c4ccccc4c(=O)c3cc2s1`, for which the TGI in the assay with COLO 205 colon, in the assay with K-562 leukemia, in the assay with HCC-2998 colon, in the assay on OVCAR-8 ovarian, with IGROV1 ovarian and in the assay with SK-MEL-5 melanoma was greater than 100 µM throughout. Further, the TGI in the assay on RXF 393 renal, with SF-539 CNS and in the assay on HT29 colon was greater than 100 µM each time.
Consider `C=C1C(=O)OC2C=C(C)CC3C=C(CCC=C(C)CCC12)C(=O)O3` (stereo unspecified), for which the TGI in the assay on COLO 205 colon worked out at 115 µM; with K-562 leukemia, 228 µM; in the assay with HCC-2998 colon, 105 µM; with OVCAR-8 ovarian, 174 µM; in the assay with IGROV1 ovarian it was 115 µM; in the assay with SK-MEL-5 melanoma, 138 µM. Further, the results for the TGI in the assay with RXF 393 renal, in the assay with SF-539 CNS and with HT29 colon were 82.3 µM, 199 µM and 131 µM, respectively.
As for `Nc1ccc2ncc(NCc3ccc(F)cc3)nc2c1`, the TGI in the assay with COLO 205 colon, in the assay with K-562 leukemia, in the assay on HCC-2998 colon, with OVCAR-8 ovarian, in the assay on SK-MEL-5 melanoma and with RXF 393 renal was greater than 100 µM each time. Moreover, the TGI in the assay with SF-539 CNS and in the assay on HT29 colon was greater than 100 µM throughout.
For `C#CCN1C(=O)CN2C(Cl)(Cl)C2(c2ccccc2)c2cc(Cl)ccc21` (stereo unspecified), the TGI in the assay on COLO 205 colon, in the assay on K-562 leukemia, in the assay with HCC-2998 colon, in the assay with OVCAR-8 ovarian, with SK-MEL-5 melanoma and in the assay with RXF 393 renal was greater than 100 µM each time. In the assay with HT29 colon, this compound came in with a TGI greater than 100 µM.
As for `CC(=O)Nc1ccc(S(=O)(=O)Nc2cnc3ccccc3n2)cc1`, the TGI in the assay on COLO 205 colon, in the assay on K-562 leukemia, with HCC-2998 colon, with OVCAR-8 ovarian, in the assay with IGROV1 ovarian and in the assay on SK-MEL-5 melanoma was greater than 100 µM throughout. Further, the TGI with RXF 393 renal, in the assay on SF-539 CNS and in the assay with HT29 colon was greater than 100 µM each time.
